The assay addresses T1, human glucagon receptor (Homo sapiens, UniProt P47871).
T1 construct: expressed in transfected cells; host or cells: BHK cells (parent BHK570, CRE luciferase clone BHK/KZ10-20-48), clone pLJ6'-4-25
Put plainly: Glucagon receptor binding, 125I-glucagon displacement SPA on isolated membranes. The settings on record: displacement of 125I-glucagon from membranes; read-out: IC50 GlucR. The essentials:
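Membranes from BHK cells stably expressing human glucagon receptor incubated 2 h at 25 °C with [125I]-glucagon (25 μl of 480 pM solution) and serial compound dilutions in WGA SPA format, pH 7.4 buffer with 0.1% ovalbumin. Albumin at max 0.001% or 0.2% final. IC50 from non-linear regression.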
In general terms: Loss of bound radioactivity is the signal in a displacement assay; it reports binding, not function.

This is an account of results in patent publication US9474790B2, “Stable, protracted GLP-1/glucagon receptor co-agonists for medical use” (Novo Nordisk A/S, priority 2013, dated 2016).

Numbered stars: 1 amine (or outer) side, 2 acyl side, 3 side chain; on linkers, the order of the positions; unused ones are H or OH. Square brackets hold non-standard residues; d marks the D form. Side chains are listed from the residue outwards. Peptide text beside a SMILES is read from it. * marks the point of attachment. C18 diacid = O=C(O)CCCCCCCCCCCCCCCCC(=O)*; γGlu = O=C(O)[C@H](CCC(=O)[*:2])N[*:1]; Ac4c = NC1(C(=O)O)CCC1; AEEA = NCCOCCOCC(=O)O; Aib = CC(C)(N)C(=O)O

By IC50 is commonly meant the midpoint of a concentration-inhibition curve.

T1 sequence (P47871 26-477): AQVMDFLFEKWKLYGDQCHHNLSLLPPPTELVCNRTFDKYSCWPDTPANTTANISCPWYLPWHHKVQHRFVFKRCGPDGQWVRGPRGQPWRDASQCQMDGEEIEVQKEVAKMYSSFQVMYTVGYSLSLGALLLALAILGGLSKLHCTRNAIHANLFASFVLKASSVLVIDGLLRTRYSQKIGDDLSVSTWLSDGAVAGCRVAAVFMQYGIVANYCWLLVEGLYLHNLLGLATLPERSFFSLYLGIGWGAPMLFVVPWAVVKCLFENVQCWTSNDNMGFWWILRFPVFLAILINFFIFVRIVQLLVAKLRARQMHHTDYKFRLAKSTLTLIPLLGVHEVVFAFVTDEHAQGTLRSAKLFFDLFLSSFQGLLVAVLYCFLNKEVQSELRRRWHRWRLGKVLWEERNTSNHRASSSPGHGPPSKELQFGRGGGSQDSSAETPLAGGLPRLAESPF

Turning to `CC(C)C[C@H](NC(=O)[C@H](CC(=O)O)NC(=O)[C@H](CC(C)C)NC(=O)[C@H](Cc1ccc(O)cc1)NC(=O)[C@H](CCCNC(=N)N)NC(=O)[C@H](CO)NC(=O)[C@H](CC(C)C)NC(=O)[C@H](CC(=O)O)NC(=O)[C@H](CO)NC(=O)[C@@H](NC(=O)[C@H](Cc1ccccc1)NC(=O)[C@@H](NC(=O)CNC(=O)[C@H](CCC(N)=O)NC(=O)C1(NC(=O)[C@@H](N)Cc2c[nH]cn2)CCC1)[C@@H](C)O)[C@@H](C)O)C(=O)N[C@@H](CCCNC(=N)N)C(=O)N[C@@H](CCCNC(=N)N)C(=O)N[C@@H](C)C(=O)N[C@@H](CCCNC(=N)N)C(=O)N[C@@H](CC(=O)O)C(=O)N[C@@H](Cc1ccccc1)C(=O)N[C@H](C(=O)N[C@@H](CCC(N)=O)C(=O)N[C@@H](Cc1c[nH]c2ccccc12)C(=O)N[C@@H](CC(C)C)C(=O)N[C@@H](CC(C)C)C(=O)N[C@@H](CCCCNC(=O)CC[C@H](NC(=O)CC[C@H](NC(=O)COCCOCCNC(=O)COCCOCCNC(=O)CC[C@H](NC(=O)CC[C@H](NC(=O)CCCCCCCCCCCCCCCCC(=O)O)C(=O)O)C(=O)O)C(=O)O)C(=O)O)C(=O)N[C@H](C(N)=O)[C@@H](C)O)C(C)C` [Example 46, N^ε28-[(4S)-4-carboxy-4-[[(4S)-4-carboxy-4-[[2-[2-[2-[[2-[2-[2-[[(4S)-4-carboxy-4-[[(4S)-4-carboxy-4-(17-carboxyheptadecanoylamino)butanoyl]amino]butanoyl]amino]ethoxy]ethoxy]acetyl]amino]ethoxy]ethoxy]acetyl]amino]butanoyl]amino]butanoyl]-[Acb2,Leu10,Arg12,Leu16,Arg20,Leu27,Lys28]-Glucagon amide] (H-H[Ac4c]QGTFTSDLSRYLDLRRARDFVQWLLK([γGlu-γGlu-AEEA-AEEA-γGlu-γGlu-C18 diacid])T-NH2; N-terminus assumed), the IC50 turned out to be 8.5 nM.

Turning to `CC(C)C[C@H](NC(=O)[C@H](CC(=O)O)NC(=O)[C@H](CC(C)C)NC(=O)[C@H](Cc1ccc(O)cc1)NC(=O)[C@H](CCCCN)NC(=O)[C@H](CO)NC(=O)[C@H](CC(C)C)NC(=O)[C@H](CC(=O)O)NC(=O)[C@H](CO)NC(=O)[C@@H](NC(=O)[C@H](Cc1ccccc1)NC(=O)[C@@H](NC(=O)CNC(=O)[C@H](CCC(N)=O)NC(=O)C1(NC(=O)[C@@H](N)Cc2c[nH]cn2)CCC1)[C@@H](C)O)[C@@H](C)O)C(=O)N[C@@H](CCCCN)C(=O)N[C@@H](CCCNC(=N)N)C(=O)N[C@@H](C)C(=O)N[C@@H](CCCNC(=N)N)C(=O)N[C@@H](CCC(=O)O)C(=O)N[C@@H](Cc1ccccc1)C(=O)N[C@H](C(=O)N[C@@H](CCC(N)=O)C(=O)N[C@@H](Cc1c[nH]c2ccccc12)C(=O)N[C@@H](CC(C)C)C(=O)N[C@@H](CC(C)C)C(=O)N[C@@H](CCCCNC(=O)CC[C@H](NC(=O)CC[C@H](NC(=O)COCCOCCNC(=O)COCCOCCNC(=O)CC[C@H](NC(=O)CC[C@H](NC(=O)CCCCCCCCCCCCCCCCC(=O)O)C(=O)O)C(=O)O)C(=O)O)C(=O)O)C(=O)N[C@H](C(N)=O)[C@@H](C)O)C(C)C` [Example 47, N^ε28-[(4S)-4-carboxy-4-[[(4S)-4-carboxy-4-[[2-[2-[2-[[2-[2-[2-[[(4S)-4-carboxy-4-[[(4S)-4-carboxy-4-(17-carboxyheptadecanoylamino)butanoyl]amino]butanoyl]amino]ethoxy]ethoxy]acetyl]amino]ethoxy]ethoxy]acetyl]amino]butanoyl]amino]butanoyl]-[Acb2,Leu10,Leu16,Lys17,Arg20,Glu21,Leu27,Lys28]-Glucagon amide] (H-H[Ac4c]QGTFTSDLSKYLDLKRAREFVQWLLK([γGlu-γGlu-AEEA-AEEA-γGlu-γGlu-C18 diacid])T-NH2; N-terminus assumed), the IC50 turned out to be 1.5 nM.

Take `CC(C)C[C@H](NC(=O)[C@H](CC(=O)O)NC(=O)[C@H](CC(C)C)NC(=O)[C@H](Cc1ccc(O)cc1)NC(=O)[C@H](CCCCN)NC(=O)[C@H](CO)NC(=O)[C@H](CC(C)C)NC(=O)[C@H](CC(=O)O)NC(=O)[C@H](CO)NC(=O)[C@@H](NC(=O)[C@H](Cc1ccccc1)NC(=O)[C@@H](NC(=O)CNC(=O)[C@H](CCC(N)=O)NC(=O)C1(NC(=O)[C@@H](N)Cc2c[nH]cn2)CCC1)[C@@H](C)O)[C@@H](C)O)C(=O)N[C@@H](CCCNC(=N)N)C(=O)N[C@@H](CCCNC(=N)N)C(=O)N[C@@H](C)C(=O)N[C@@H](CCCNC(=N)N)C(=O)N[C@@H](CCC(=O)O)C(=O)N[C@@H](Cc1ccccc1)C(=O)N[C@H](C(=O)N[C@@H](CCC(N)=O)C(=O)N[C@@H](Cc1c[nH]c2ccccc12)C(=O)N[C@@H](CC(C)C)C(=O)N[C@@H](CC(C)C)C(=O)N[C@@H](CCCCNC(=O)CC[C@H](NC(=O)CC[C@H](NC(=O)COCCOCCNC(=O)COCCOCCNC(=O)CC[C@H](NC(=O)CC[C@H](NC(=O)CCCCCCCCCCCCCCCCC(=O)O)C(=O)O)C(=O)O)C(=O)O)C(=O)O)C(=O)N[C@H](C(N)=O)[C@@H](C)O)C(C)C` [Example 49, N^ε28-[(4S)-4-carboxy-4-[[(4S)-4-carboxy-4-[[2-[2-[2-[[2-[2-[2-[[(4S)-4-carboxy-4-[[(4S)-4-carboxy-4-(17-carboxyheptadecanoylamino)butanoyl]amino]butanoyl]amino]ethoxy]ethoxy]acetyl]amino]ethoxy]ethoxy]acetyl]amino]butanoyl]amino]butanoyl]-[Acb2,Leu10,Leu16,Arg20,Glu21,Leu27,Lys28]-Glucagon amide] (H-H[Ac4c]QGTFTSDLSKYLDLRRAREFVQWLLK([γGlu-γGlu-AEEA-AEEA-γGlu-γGlu-C18 diacid])T-NH2; N-terminus assumed): the concentration for half-maximal inhibition (IC50) came out at 1.7 nM.

For the molecule `CC(C)C[C@H](NC(=O)[C@H](Cc1c[nH]c2ccccc12)NC(=O)[C@H](CCC(N)=O)NC(=O)[C@@H](NC(=O)[C@H](Cc1ccccc1)NC(=O)[C@H](CCC(=O)O)NC(=O)[C@H](CCCNC(=N)N)NC(=O)[C@H](C)NC(=O)[C@H](CCCNC(=N)N)NC(=O)[C@H](CCCNC(=N)N)NC(=O)C(C)(C)NC(=O)[C@H](CC(=O)O)NC(=O)[C@H](CC(C)C)NC(=O)[C@H](Cc1ccc(O)cc1)NC(=O)[C@H](CCCCN)NC(=O)[C@H](CO)NC(=O)[C@H](CC(C)C)NC(=O)[C@H](CC(=O)O)NC(=O)[C@H](CO)NC(=O)[C@@H](NC(=O)[C@H](Cc1ccccc1)NC(=O)[C@@H](NC(=O)CNC(=O)[C@H](CCC(N)=O)NC(=O)C(C)(C)NC(=O)[C@@H](N)Cc1c[nH]cn1)[C@@H](C)O)[C@@H](C)O)C(C)C)C(=O)N[C@@H](CC(C)C)C(=O)N[C@@H](CCCCNC(=O)CC[C@H](NC(=O)CC[C@H](NC(=O)COCCOCCNC(=O)COCCOCCNC(=O)CC[C@H](NC(=O)CCCCCCCCCCCCCCCCC(=O)O)C(=O)O)C(=O)O)C(=O)O)C(=O)N[C@H](C(N)=O)[C@@H](C)O` [Example 51, N^ε28-[(4S)-4-carboxy-4-[[(4S)-4-carboxy-4-[[2-[2-[2-[[2-[2-[2-[[(4S)-4-carboxy-4-(17-carboxyheptadecanoylamino)butanoyl]amino]ethoxy]ethoxy]acetyl]amino]ethoxy]ethoxy]acetyl]amino]butanoyl]amino]butanoyl]-[Aib2,Leu10,Aib16,Arg20,Glu21,Leu27,Lys28]-Glucagon amide] (H-H[Aib]QGTFTSDLSKYLD[Aib]RRAREFVQWLLK([γGlu-γGlu-AEEA-AEEA-γGlu-C18 diacid])T-NH2; N-terminus assumed), the IC50 is 1.4 nM.

For `CC(C)C[C@H](NC(=O)[C@H](Cc1ccc(O)cc1)NC(=O)[C@H](CCCCN)NC(=O)[C@H](CO)NC(=O)[C@H](CC(C)C)NC(=O)[C@H](CC(=O)O)NC(=O)[C@H](CO)NC(=O)[C@@H](NC(=O)[C@H](Cc1ccccc1)NC(=O)[C@@H](NC(=O)CNC(=O)[C@H](CCC(N)=O)NC(=O)C(C)(C)NC(=O)[C@@H](N)Cc1c[nH]cn1)[C@@H](C)O)[C@@H](C)O)C(=O)N[C@@H](CCC(=O)O)C(=O)N[C@@H](CO)C(=O)N[C@@H](CCCCN)C(=O)N[C@@H](CCCNC(=N)N)C(=O)N[C@@H](C)C(=O)N[C@@H](CCCNC(=N)N)C(=O)N[C@@H](CCC(=O)O)C(=O)N[C@@H](Cc1ccccc1)C(=O)N[C@H](C(=O)N[C@@H](CCC(N)=O)C(=O)N[C@@H](Cc1c[nH]c2ccccc12)C(=O)N[C@@H](CC(C)C)C(=O)N[C@@H](CC(C)C)C(=O)N[C@@H](CCCCNC(=O)CC[C@H](NC(=O)CC[C@H](NC(=O)[C@H](CO)NC(=O)[C@H](CCC(=O)O)NC(=O)[C@H](CO)NC(=O)CC[C@H](NC(=O)CC[C@H](NC(=O)CCCCCCCCCCCCCCCCC(=O)O)C(=O)O)C(=O)O)C(=O)O)C(=O)O)C(=O)N[C@H](C(N)=O)[C@@H](C)O)C(C)C` [Example 54, N^ε28-[(4S)-4-carboxy-4-[[(4S)-4-carboxy-4-[[(2S)-2-[[(2S)-4-carboxy-2-[[(2S)-2-[[(4S)-4-carboxy-4-[[(4S)-4-carboxy-4-(17-carboxyheptadecanoylamino)butanoyl]amino]butanoyl]amino]-3-hydroxypropanoyl]amino]butanoyl]amino]-3-hydroxypropanoyl]amino]butanoyl]amino]butanoyl]-[Aib2,Leu10,Glu15,Lys17,Arg20,Glu21,Leu27,Lys28]-Glucagon amide] (H-H[Aib]QGTFTSDLSKYLESKRAREFVQWLLK([γGlu-γGlu-Ser-Glu-Ser-γGlu-γGlu-C18 diacid])T-NH2; N-terminus assumed), the IC50 was 1.7 nM.
